Reference: patent US7208500B2, “Thienopyridine-phenylacetamides and their derivatives useful as new anti-angiogenic agents” (Agouron Pharmaceuticals, Inc., priority 2003, dated 2007)

How the values were obtained:
[1] = biological target: T1, FGF-R1 intracellular kinase domain (Homo sapiens, UniProt P11362, C488A/C584S/L457V); test: FGF-R spectrophotometric assay; format: biochemical; details: 50 nM test compound; read-out: FGF-P (% inh @ 50 nM)
T1 construct: starting from the endogenous methionine residue 456 to glutamate 766; made in house; host or cells: baculovirus vector expression system
Description: The intracellular kinase domain of human FGF-R1 was expressed using the baculovirus vector expression system starting from the endogenous methionine residue 456 to glutamate 766, according to the residue numbering system of Mohammadi et al., Mol. Cell. Biol., 16, 977–989 (1996). In addition, the construct also has the following 3 amino acid substitutions: L457V, C488A, and C584S.
The spectrophotometric assay was carried out as described above for VEGF-R2, except for the following changes in concentration: FGF-R=50 nM, ATP=2 mM, and poly(E4Y1)=15 mM.

[2] = test system: human umbilical vein endothelial cells (HUVEC); test: HUVEC + VEGF proliferation assay; format: cell-based; details: VEGF-stimulated proliferation, final VEGF 6 ng/mL, 72 hours, MTT
Description: This assay determines the ability of a test compound to inhibit the growth factor-stimulated proliferation of human umbilical vein endothelial cells (“HUVEC”). HUVEC cells (passage 3–4, Clonetics, Corp.) were thawed into EGM2 culture medium (Clonetics Corp) in T75 flasks. Fresh EGM2 medium was added to the flasks 24 hours later. Four or five days later, cells were exposed to another culture medium (F12K medium supplemented with 10% fetal bovine serum (FBS), […] endothelial cell growth supplement (ECGS), and 0.1 mg/mL heparin). Exponentially-growing HUVEC cells were used in experiments thereafter. Ten to twelve thousand HUVEC cells were plated in 96-well dishes in […] of rich, culture medium (described above). The cells were allowed to attach for 24 hours in this medium. The medium was then removed by aspiration and […] of starvation media (F12K+1% FBS) was added to each well. After 24 hours, […] of test agent dissolved in 1% DMSO in starvation medium or this vehicle alone was added into each treatment well; the final DMSO concentration was 0.1%. One hour later, […] of VEGF (30 ng/mL) in starvation media was added to all wells except those containing untreated controls; the final VEGF concentration was 6 ng/mL. Cellular proliferation was quantified 72 hours later by MTT dye reduction, at which time cells were exposed for 4 hours MTT (Promega Corp.). Dye reduction was stopped by addition of a stop solution (Promega Corp.) and absorbance at 595 nm was determined on a 96-well spectrophotometer plate reader.

[3] = biological target: T2, unphosphorylated VEGF-R2D50 (FLVK), cytosolic domain of human VEGF-R2 (Homo sapiens, UniProt P35968, DEL940-989/E990V); test: VEGF-R2 coupled spectrophotometric assay (FLVK); format: biochemical
T2 construct: VEGF-R2D50 contains residues 806–939 and 990–1171; made in house; host or cells: baculovirus/insect cell system
Source text: This construct determines the ability of a test compound to inhibit tyrosine kinase activity. A construct (VEGF-R2D50) of the cytosolic domain of human vascular endothelial growth factor receptor 2 (VEGF-R2) lacking the 50 central residues of the 68 residues of the kinase insert domain was expressed in a baculovirus/insect cell system. Of the 1356 residues of full-length VEGF-R2, VEGF-R2D50 contains residues 806–939 and 990–1171, and also one point mutation (E990V) within the kinase insert domain relative to wild-type VEGF-R2. Autophosphorylation of the purified construct was performed by incubation of the enzyme at a concentration of […] in the presence of 3 mM ATP and 40 mM MgCl2 in 100 mM HEPES, pH 7.5, containing 5% glycerol and 5 mM DTT, at 4° C. for 2 h. […] See Parast et al., Biochemistry, 37, 16788–16801 (1998).
The production of ADP from ATP that accompanies phosphoryl transfer was coupled to oxidation of NADH using phosphoenolpyruvate (PEP) and a system having pyruvate kinase (PK) and lactic dehydrogenase (LDH). The oxidation of NADH was monitored by following the decrease of absorbance at 340 nm (e340=6.22 cm^−1 mM^−1) using a Beckman DU 650 spectrophotometer. Assay conditions for phosphorylated VEGF-R2D50 (indicated as FLVK-P in the tables below) were the following: 1 mM PEP; […]; 50 units of LDH/mL; 20 units of PK/mL; 5 mM DTT; 5.1 mM poly(E4Y1); 1 mM ATP; and 25 mM MgCl2 in 200 mM HEPES, pH 7.5. Assay conditions for unphosphorylated VEGF-R2D50 (indicated as FLVK in the tables) were the following: 1 mM PEP; […]; 50 units of LDH/mL; 20 units of PK/mL; 5 mM DTT; 20 mM poly(E4Y1); 3 mM ATP; and 60 mM MgCl2 and 2 mM MnCl2 in 200 mM HEPES, pH 7.5. Assays were initiated with 5 to 40 nM of enzyme. Ki values were determined by measuring enzyme activity in the presence of varying concentrations of test compounds. The percent inhibition at 50 nm (% inhibition@50 nm) was determined by linear least-squares regression analysis of absorpbance as a function of time. The binding inhibitions were fitted to equation as described by Morrison. The data were analyzed using Enzyme Kinetic and Kaleidagraph software.

T2 sequence (P35968 with tags, fused parts or gaps DEL940-989/E990V limits assumed): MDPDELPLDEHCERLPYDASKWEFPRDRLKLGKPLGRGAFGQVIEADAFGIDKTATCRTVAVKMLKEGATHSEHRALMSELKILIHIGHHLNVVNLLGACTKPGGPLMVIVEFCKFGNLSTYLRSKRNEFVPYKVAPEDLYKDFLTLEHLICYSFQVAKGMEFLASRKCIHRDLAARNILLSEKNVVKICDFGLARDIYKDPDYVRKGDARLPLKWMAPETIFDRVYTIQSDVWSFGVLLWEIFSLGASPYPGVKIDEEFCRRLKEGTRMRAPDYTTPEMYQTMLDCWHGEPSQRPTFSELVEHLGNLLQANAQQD
T1 sequence (P11362 456-766 L457V/C488A/C584S): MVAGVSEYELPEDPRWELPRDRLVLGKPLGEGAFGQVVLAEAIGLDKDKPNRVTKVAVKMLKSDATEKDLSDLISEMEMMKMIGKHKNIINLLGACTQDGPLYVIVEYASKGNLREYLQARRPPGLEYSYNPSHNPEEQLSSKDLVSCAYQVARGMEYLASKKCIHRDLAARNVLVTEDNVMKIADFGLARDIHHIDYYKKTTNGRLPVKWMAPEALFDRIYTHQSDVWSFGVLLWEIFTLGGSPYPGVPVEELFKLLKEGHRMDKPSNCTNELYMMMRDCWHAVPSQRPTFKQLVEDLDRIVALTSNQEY

Row | SMILES | inhibition at 0.05 µM [1] [%] | IC50 [2] [nM] | Ki [3] [nM]
1 | Cc1cc(C)nc(NC(=O)Cc2ccc(Oc3ccnc4cc(C(=O)N5C[C@@H](O)[C@@H](O)C5)sc34)cc2)c1 [Example 3] | 0 to 5 | < 1 | 
2 | Cc1cc(C)nc(NC(=O)Cc2ccc(Oc3ccnc4cc(C(=O)N5CC[C@@H](N(C)C)C5)sc34)cc2)c1 [Example 4, 2-{4-[2-((R)-3-Dimethylamino-pyrrolidine-1-carbonyl)-thieno[3,2-b]pyridin-7-yloxy]-phenyl}-N-(4,6-dimethyl-pyridin-2-yl)-acetamide] | 5 to 10 | 1 to 10 | < 1
3 | Cc1cc(C)nc(NC(=O)Cc2ccc(Oc3ccnc4cc(C(=O)N(C)CCN(C)C)sc34)cc2)c1 [Example 6, 7-{4-[(4,6-Dimethyl-pyridin-2-ylcarbamoyl)-methyl]-phenoxy}-thieno[3,2-b]pyridine-2-carboxylic acid (2-dimethylamino-ethyl)-methyl-amide] | 5 to 10 | > 10 | < 1
4 | Cc1cc(C)nc(NC(=O)Cc2ccc(Oc3ccnc4cc(C(=O)N(C)C)sc34)cc2)c1 [Example 7, 7-{4-[(4,6-Dimethyl-pyridin-2-ylcarbamoyl)-methyl]-phenoxy}-thieno[3,2-b]pyridine-2-carboxylic acid dimethylamide] | 5 to 10 | < 1 | < 1
5 | CN(C)C(=O)c1cc2nccc(Oc3ccc(CC(=O)Nc4ccc(Cl)cn4)cc3)c2s1 [Example 8, 7-{4-[(5-Chloro-pyridin-2-ylcarbamoyl)-methyl]-phenoxy}-thieno[3,2-b]pyridine-2-carboxylic acid dimethylamide] | 0 to 5 | > 10 | 1 to 10
6 | Cc1cc(C)nc(NC(=O)Cc2ccc(Oc3ccnc4cc(-c5nccn5C)sc34)cc2)c1 [Example 9, N-(4,6-Dimethyl-pyridin-2-yl)-2-{4-[2-(1-methyl-1H-imidazol-2-yl)-thieno[3,2-b]pyridin-7-yloxy]-phenyl}-acetamide] | 5 to 10 | < 1 | < 1
7 | Cn1ccnc1-c1cc2nccc(Oc3ccc(CC(=O)Nc4ccc(Cl)cn4)cc3)c2s1 [Example 10, N-(5-Chloro-pyridin-2-yl)-2-{4-[2-(1-methyl-1H-imidazol-2-yl)-thieno[3,2-b]pyridin-7-yloxy]-phenyl}-acetamide] | 0 to 5 | < 1 | < 1
8 | Cc1ccnc(NC(=O)Cc2ccc(Oc3ccnc4cc(-c5nccn5C)sc34)cc2)c1 [Example 11, 2-{4-[2-(1-Methyl-1H-imidazol-2-yl)-thieno[3,2-b]pyridin-7-yloxy]-phenyl}-N-(4-methyl-pyridin-2-yl)-acetamide] | 0 to 5 | > 10 | < 1
9 | Cn1ccnc1-c1cc2nccc(Oc3ccc(CC(=O)Nc4cc5ccccc5cn4)cc3)c2s1 [Example 12, N-Isoquinolin-3-yl-2-(4-[2-(1-methyl-1H-imidazol-2-yl)-thieno[3,2-b]pyridin-7-yloxy]-phenyl}-acetamide] | 5 to 10 | > 10 | < 1
10 | Cn1ccnc1-c1cc2nccc(Oc3ccc(CC(=O)Nc4ccc(C(F)(F)F)cn4)cc3)c2s1 [Example 13, 2-{4-[2-(1-Methyl-1H-imidazol-2-yl)-thieno[3,2-b]pyridin-7-yloxy]-phenyl}-N-(5-trifluoromethyl-pyridin-2-yl)-acetamide] | 5 to 10 | > 10 | < 1
11 | Cc1cc(C)nc(NC(=O)Cc2ccc(Oc3ccnc4cc(C(=O)N5CCC5)sc34)cc2)c1 [Example 22, 2-{4-[2-(Azetidine-1-carbonyl)-thieno[3,2-b]pyridin-7-yloxy]-phenyl}-N-(4,6-dimethyl-pyridin-2-yl)-acetamide] | 0 to 5 | < 1 | 
12 | O=C(Cc1ccc(Oc2ccnc3cc(C(=O)N4CCC4)sc23)cc1)Nc1ccc2[nH]ncc2c1 [Example 36, 2-{4-[2-(Azetidine-1-carbonyl)-thieno[3,2-b]pyridin-7-yloxy]-phenyl}-N-(1H-indazol-5-yl)-acetamide] | 0 to 5 | > 10 | 
13 | O=C(Cc1ccc(Oc2ccnc3cc(C(=O)N4CCC4)sc23)cc1)Nc1ccc(N2CCOCC2)nc1 [Example 38, 2{-4-[2-(Azetidine-1-carbonyl)-thieno[3,2-b]pyridin-7-yloxy]-phenyl}-N-(6-morpholin-4-yl-pyridin-3-yl)-acetamide] | 0 to 5 | > 10 | 
14 | Cc1cc(NC(=O)Cc2ccc(Oc3ccnc4cc(C(=O)N5CCC5)sc34)cc2Cl)nn1C [Example 56, 2-{4-[2-(Azetidine-1-carbonyl)-thieno[3,2-b]pyridin-7-yloxy]-2-chloro-phenyl}-N-(1,5-dimethyl-1H-pyrazol-3-yl)-acetamide] | 0 to 5 | > 10 | 
15 | COC(C(=O)Nc1cc(C)no1)c1ccc(Oc2ccnc3cc(C(=O)N4CCC4)sc23)cc1 (centres unmarked) [Example 79, 2-{4-[2-(Azetidine-1-carbonyl)-thieno[3,2-b]pyridin-7-yloxy]-phenyl}-2-methoxy-N-(3-methyl-isoxazol-5-yl)-acetamide] | 0 to 5 |  | > 10
16 | Cc1cc(NC(=O)C(O)c2ccc(Oc3ccnc4cc(C(=O)N5CCC5)sc34)cc2)on1 (centres unmarked) [Example 80, 2-{4-[2-(Azetidine-1-carbonyl)-thieno[3,2-b]pyridin-7-yloxy]-phenyl}-2-hydroxy-N-(3-methyl-isoxazol-5-yl)-acetamide] | 5 to 10 |  | > 10
17 | CCCCNC(=O)C(O)c1ccc(Oc2ccnc3cc(C(=O)N4CCC4)sc23)cc1 (centres unmarked) [Example 82, 2-{4-[2-(Azetidine-1-carbonyl)-thieno[3,2-b]pyridin-7-yloxy]-phenyl}-N-butyl-2-hydroxy-acetamide] | 0 to 5 |  | > 10
18 | COC(C(=O)Nc1ccccn1)c1ccc(Oc2ccnc3cc(C(=O)N4CCC4)sc23)cc1 (centres unmarked) [Example 83, 2-{4-[2-(Azetidine-1-carbonyl)-thieno[3,2-b]pyridin-7-yloxy]-phenyl}-2-methoxy-N-pyridin-2-yl-acetamide] | 5 to 10 |  | > 10
19 | O=C(Nc1ccccn1)C(O)c1ccc(Oc2ccnc3cc(C(=O)N4CCC4)sc23)cc1 (centres unmarked) [Example 84, 2-{4-[2-(Azetidine-1-carbonyl)-thieno[3,2-b]pyridin-7-yloxy]-phenyl}-2-hydroxy-N-pyridin-2-yl-acetamide] | 5 to 10 |  | > 10
